{
  "source": "patent US10668057B2",
  "about": "“Compositions and methods for inducing conformational changes in cereblon and other E3 ubiquitin ligases” (Celgene Corporation, priority 2014, dated 2020)",
  "key": {"[1]": {"details": "mice and rats; cited from earlier work"}, "CRBN^E377V": {"target": "T1, CRBN^E377V (Homo sapiens, UniProt Q96SW2, E377V)", "T1 construct": "Cell lines re-expressing RFP or full length CRBN wild type or E377V mutant; expressed in transfected cells; host or cells: DF15R (CRBN-deficient myeloma line), lentiviral system; cell extract", "assay": "Thalidomide analog-coupled affinity bead assay, DF15R CRBN^E377V cell extracts", "assay_type": "binding", "details": "preincubation of cell extracts with free compound, comparable to CRBN^WT", "procedure": "(§1) DF15, DF15R or DF15R derived cell line extracts were prepared in NP 40 lysis buffer (0.5% NP40, 50 mM Tris HCl (pH 8.0), 150 mM NaCl, 0.5 mM DTT, 0.25 mM PMSF, 1× protease inhibitor mix (Roche, Indianapolis, Ind.) at approximately 2×10^8 cells per ml […]. Cell debris and nucleic acids were cleared by centrifugation (14,000 rpm 30 min 4° C.). In competition experiments 0.5 ml (3-5 mg protein) aliquots of the resulting extracts were preincubated (15 min room temp.) with 5 μl DMSO (control) or 5 μl compound at varying concentrations in DMSO. Thalidomide analog-coupled beads (0.3-0.5 mg) were added to protein extracts and samples rotated (2 hours, 4° C.). Beads were washed three times with 0.5 ml NP40 buffer, and then bound proteins were eluted with SDS-PAGE sample buffer.\nTo probe the function of the residues proximal to the bound IMiD® drug, we performed mutagenesis of residue E377 to valine in the human CRBN sequence and re-expressed the protein using a lentiviral system in DF15R cells. Cell extracts from this line were used to assay the ability of CRBN^E377V to bind IMiD® compound."}, "CRBN^WT": {"target": "T2, CRBN^WT (Homo sapiens, UniProt Q96SW2)", "T2 construct": "re-express full length wild type (CRBN^WT), W386A (CRBN^W386A) or W400A (CRBN^W400A) mutant versions of CRBN; FLAG; expressed in transfected cells; host or cells: DF15R (CRBN-deficient myeloma line), lentiviral transduction, puromycin selection; cell extract", "assay": "Thalidomide analog-coupled affinity bead assay, DF15R CRBN^WT cell extracts", "assay_type": "binding", "details": "preincubation of cell extracts with free compound", "procedure": "as §1"}, "CRBN [2]": {"target": "T3, CRBN (Homo sapiens, UniProt Q96SW2)", "details": "in vitro; cited from earlier work"}, "MDA-MB-231": {"system": "MDA-MB-231", "assay": "Growth inhibition and pro-apoptotic activity in breast cancer cells treated with CRBN siRNA", "assay_type": "cell-based", "details": "CRBN siRNA vs negative control", "procedure": "Breast cancer cells (MDA-MB-231) were treated with CRBN siRNA or a negative control. CC-885 was added at a concentration between 0 to 100 μM, and CRBN levels were assessed at 48 hours post treatment."}, "[3]": {"system": "TMD8 (ABC) or Karpas 422 (GCB) cells", "assay": "3H-thymidine incorporation proliferation assay, co-treatment with lenalidomide", "assay_type": "cell-based", "details": "for anti-proliferative effects on co-treatment with lenalidomide: co-treatment with 10 μM lenalidomide"}, "[4]": {"system": "panel of tumor cell lines", "assay": "Potency across a panel of tumor cell lines", "assay_type": "cell-based", "procedure": "The potency of CC-885 was assessed across a panel of tumor cell lines, including B-lymphoma, breast, CNS, colon, kidney, leukemia, lung, melanoma, multiple myeloma, ovary and prostate."}, "CRBN [5]": {"target": "T3, CRBN", "assay": "Thalidomide analog affinity bead competition, U266 cell extracts", "assay_type": "binding", "parameters": "extracts prepared from U266 multiple myeloma cells; endogenous in cells; host or cells: U266 multiple myeloma cells (cell extract)", "details": "U266 MM cell extracts, competition with thalidomide analog affinity beads", "procedure": "Immunoblot analysis of extracts prepared from U266 multiple myeloma cells and pre-incubated with vehicle DMSO (D), Pomalidomide (Pom) or CC-885 at the indicated concentrations, and bound to thalidomide analog affinity beads, washed and eluted with SDS buffer as previously described (Ito et al, 2010; Lopez-Girona et al, 2012). Samples were subjected to SDS-PAGE and immunoblot analysis using anti-CRBN 65-76 (1:10,000 dilution; Red signal) and anti-DDB1 (Cell Signaling) (1:2,000 dilution; Green signal). A LI-COR Odissey system was used to quantify CRBN band density and relative amounts of CRBN were determined by averaging at least three DMSO controls and expressing CRBN in each competition sample as percent inhibition of CRBN protein relative to the averaged controls as 100% binding. […] Cell proliferation assay of DF15 (sensitive), DF15R (resistant; CRBNnull) cells treated with a dose response of CC-885. Assays were done in triplicate and error bars represent s.d. Data for each cell line was normalized to treatment with vehicle (DMSO). […] Cell proliferation assay of DF15 (sensitive), DF15R (resistant; CRBNnull), DF15R-hCRBNWT (human CRBN), DF15R-RFP cells treated with a dose response of CC-885. […] Assays were done in triplicate and error bars represent s.d. Data for each cell line was normalized to treatment with vehicle (DMSO). […]"}, "H929": {"system": "H929", "assay": "Apoptosis in multiple myeloma cell line H929", "assay_type": "cell-based", "details": "0.01 nM to 1000 nM, assessed at 24 hrs", "procedure": "The multiple myeloma cell line, H929, was cultured and treated with CC-885 or other CMA analogs at various concentrations from 0.01 nM to 1000 nM. Apoptosis was assessed at 24 hrs. later."}, "[6]": {"system": "DF15 (sensitive), DF15R (resistant; CRBNnull) cells", "assay": "Cell proliferation assay of DF15, DF15R and DF15R-derived cells with CC-885", "assay_type": "cell-based"}, "IL-2": {"system": "IL-2", "assay": "IL-2 induction in mouse splenocytes", "assay_type": "cell-based", "text": "FIGS. 26A-26B show IL2 costimulation by pomalidomide. FIG. 26A: Co-stimulation of IL2 release by pomalidomide in human PBMCs treated with anti-CD3. Data are shown as mean±s.d. FIG. 26B: Costimulation of IL2 release by anti-CD28 (squares) or pomalidomide (circles) in mouse PBMC treated with anti-CD3. Data are shown as mean±s.d."}, "DF15R cells": {"system": "DF15R cells", "assay": "Cell proliferation assay of DF15R cells re-expressing CRBN wild type or mutants", "assay_type": "cell-based"}, "H929 and U266": {"system": "H929 and U266", "assay": "Cell viability in CRBN inducible shRNA knockdown myeloma cells", "assay_type": "cell-based", "details": "CRBN inducible knockdown vs shControl, 5 day treatment", "text": "FIG. 25A: An inducible shRNA construct targeting CRBN or a control construct was transduced into the multiple myeloma cell lines H929 and U266. Inducible shRNA expression (marked by turbo-RFP) was monitored by flow cytometry over a period of 1 to 9 days as indicated in the histograms (Top row). […] FIG. 25B: CRBN protein expression was quantified by Western blotting. […] Data are shown as mean of three independent experiments±s.d.\nInducible shRNA constructs targeting CRBN or a control construct (Open Biosystems) were transduced using spinoculation methodology into the multiple myeloma cell lines H929 and U266. Stably transduced cells were selected with puromycin. Inducible shRNA expression (marked by RFP) was monitored by fluorescence microscopy and flow cytometry using 1 μg/mL doxycycline. CRBN protein expression was quantified by Western blotting. Cell proliferation and viability were assessed by 7AAD/flow cytometry assays. 6.9.2.5 Immunoblot and Immunohistochemistry"}},
  "data": [
    {"smiles": "O=C1CCC(N2C(=O)c3ccccc3C2=O)C(=O)N1", "note": "(racemic) [thalidomide]", "values": [
      {"measurement": "teratogenic effects", "setting": "[1]", "value": "insensitive"},
      {"measurement": "competition for CRBN^E377V binding to thalidomide analog-beads", "setting": "CRBN^E377V", "value": "competed"},
      {"measurement": "competition for CRBN binding to thalidomide analog-beads", "setting": "CRBN^WT", "value": "competed for binding to the beads"},
      {"measurement": "auto-ubiquitination of CRBN", "setting": "CRBN [2]", "value": "able to inhibit"}
    ]},
    {"smiles": "Cc1ccc(NC(=O)NCc2ccc3c(c2)CN(C2CCC(=O)NC2=O)C3=O)cc1Cl", "note": "(stereo not shown) [CC-885, 1-(3-chloro-4-methylphenyl)-3-((2-(2,6-dioxopiperidin-3-yl)-1-oxoisoindolin-5-yl)methyl)urea]", "values": [
      {"measurement": "growth inhibition, dependence on CRBN", "setting": "MDA-MB-231", "value": "CRBN is required"},
      {"measurement": "pro-apoptotic activity, dependence on CRBN", "setting": "MDA-MB-231", "value": "CRBN is required"},
      {"measurement": "anti-proliferative effects on co-treatment with lenalidomide", "setting": "[3]", "value": "blocks anti-proliferative effects"},
      {"measurement": "potency across tumor cell line panel", "setting": "[4]; B-lymphoma, breast, CNS, colon, kidney, leukemia, lung, melanoma, multiple myeloma, ovary and prostate", "value": "potent"},
      {"measurement": "Therapeutic Index", "setting": "[4]; toxic effects at low doses", "value": "low"},
      {"measurement": "binding to CRBN protein", "setting": "CRBN [5]", "value": "binds"},
      {"measurement": "early apoptosis", "setting": "H929", "value": "induced early apoptosis"},
      {"measurement": "anti-proliferative activity after re-expression of human CRBN", "setting": "[6]; DF15R-hCRBNWT", "value": "recues CC-885 anti-proliferative activity"},
      {"measurement": "anti-proliferative activity, dependence on CRBN", "setting": "[6]; DF15 vs DF15R (CRBNnull)", "value": "CRBN is required"}
    ]},
    {"smiles": "Cc1nc2cccc(N)c2c(=O)n1C1CCC(=O)NC1=O", "note": "(stereo not shown) [Compound A, 3-(5-amino-2-methyl-4-oxo-4H-quinazolin-3-yl)-piperidine-2,6-dione]", "values": [
      {"measurement": "anti-proliferative effects on co-treatment with lenalidomide", "setting": "[3]", "value": "blocks anti-proliferative effects"}
    ]},
    {"smiles": "Nc1cccc2c1CN(C1CCC(=O)NC1=O)C2=O", "note": "(stereo not shown) [lenalidomide, 3-(4-amino-1-oxo-1,3-dihydro-isoindol-2-yl)-piperidine-2,6-dione]", "values": [
      {"measurement": "teratogenic effects", "setting": "[1]", "value": "insensitive"},
      {"measurement": "competition for CRBN", "setting": "[3]; against Compound A and CC-885", "value": "competes"}
    ]},
    {"smiles": "Nc1cccc2c1C(=O)N(C1CCC(=O)NC1=O)C2=O", "note": "(stereo not shown) [pomalidomide]", "values": [
      {"measurement": "competition for CRBN^E377V binding to thalidomide analog-beads", "setting": "CRBN^E377V", "value": "competed"},
      {"measurement": "IL-2 inducing effects", "setting": "IL-2", "value": "resistant"},
      {"measurement": "sensitivity to antiproliferative effect", "setting": "DF15R cells; DF15R re-expressing CRBN^E377V", "value": "unable to rescue sensitivity"},
      {"measurement": "antiproliferative effect", "setting": "DF15R cells; DF15R re-expressing CRBN^WT", "value": "regained antiproliferative effect"},
      {"measurement": "competition for CRBN binding to thalidomide analog-beads", "setting": "CRBN^WT", "value": "competed for binding to the beads"},
      {"measurement": "anti-proliferative effects", "setting": "H929 and U266", "value": "reduced anti-proliferative effects"}
    ]}
  ]
}
